Data taken from patent US9951028B2, “Agricultural chemicals” (REDAG CROP PROTECTION LTD, priority 2013, dated 2018).

Legend:
Assay type in all cases: in vivo
[1] = system: Abutilon theophrasti (China Jute); assay: Herbicidal efficacy screen, corrected necrosis; conditions: for control over A. theophrasti: after 10 days, Table 5
Echinochloa crus-galli = assay: Herbicidal efficacy screen, corrected necrosis; conditions: Table 5; for control over E. crus galli: after 10 days
Hordeum vulgare (Barley) = assay: Herbicidal efficacy screen, corrected necrosis; conditions: Table 5
[2] = system: A. theophrasti, E. crus galli, H. vulgare; assay: Herbicidal efficacy screen, summary of tables 3-5 over all target weed species; conditions: table 3
From the text: (§1) Certain compounds of the invention were screened for herbicidal efficacy against target plants: Amaranthus retroflexus (redroot pigweed), Abutilon theophrasti (China Jute): Capsella bursa-pastoris, (shepherd's-purse) Echinochloa crus-galli, Hordeum vulgare (Barley),

[3] = system: Amaranthus retroflexus (redroot pigweed); assay: Herbicidal efficacy screen, corrected necrosis
[4] = system: Capsella bursa-pastoris, (shepherd's-purse); assay: Herbicidal efficacy screen, corrected necrosis
[5] = system: A. retroflexus, A. theophrasti, C. bursa pastoris; assay: Herbicidal efficacy screen, text summary of table 2 over all target weed species; conditions: certain weed species, after 1 day
From the text: as §1

[6] = 6.25 g/ha, day 1 post application
[7] = 6.25 g/ha, day 7 post application
[8] = 12.5 g/ha, day 1 post application
[9] = 12.5 g/ha, day 7 post application
[10] = 25 g/ha, day 1 post application
[11] = 25 g/ha, day 7 post application
[12] = 50 g/ha, day 1 post application
[13] = 50 g/ha, day 7 post application
[14] = 100 g/ha, day 1 post application
[15] = 100 g/ha, day 7 post application

CSc1c(C(F)(F)F)ccc(C(=O)Nc2nonc2C)c1C [Compound 48, 2-Methyl-N-(4-methyl-1,2,5-oxadiazol-3-yl)-3-methylsulfanyl-4-(trifluoromethyl)benzamide, reference compound]
control over A. theophrasti [1]: good control
control over E. crus galli (Echinochloa crus-galli): good control

CSc1c(C(F)(F)F)ccc(CNc2nonc2C)c1C [Compound 47, 4-Methyl-N-[[2-methyl-3-methylsulfanyl-4-(trifluoromethyl)phenyl]methyl]-1,2,5-oxadiazol-3-amine]
control over A. theophrasti [1]: good control
control over H. vulgare (Hordeum vulgare (Barley)): good control
control of H. vulgare relative to the reference compound 48 (Hordeum vulgare (Barley); at low dosages): improved control
control over E. crus galli (Echinochloa crus-galli): good control
control of E. crus galli relative to the reference compound 48 (Echinochloa crus-galli; at low dosages): improved control

C#CC(c1ccc(F)cc1)C(CC(=O)OCC)c1c(F)cccc1F (stereo not shown) [Compound 37, Ethyl 3-(2,6-difluorophenyl)-4-(4-fluorophenyl)hex-5-ynoate]
control compared with prior art compounds 27 and 27a [2]: significantly better control
control over all three weed species [2]: excellent control

CC(C)C(C)S(=O)(=O)NC(=O)c1cc(-n2c(=O)cc(C(F)(F)F)n(C)c2=O)c(F)cc1Cl (stereo not shown) [Compound 26, 2-Chloro-N-(1,2-dimethylpropylsulfonyl)-4-fluoro-5-[3-methyl-2,6-dioxo-4-(trifluoromethyl)pyrimidin-1-yl]benzamide]
Average of corrected necrosis [1, 6]: C (C represents a percentage increase in necrosis relative to the control of 0.1-50)
Average of corrected necrosis [1, 7]: A (A represents a percentage inhibition of 80-100)
Average of corrected necrosis [1, 8]: 0%
Average of corrected necrosis [1, 9]: A (A represents a percentage inhibition of 80-100)
Average of corrected necrosis [1, 10]: C (C represents a percentage increase in necrosis relative to the control of 0.1-50)
Average of corrected necrosis [1, 11]: A (A represents a percentage inhibition of 80-100)
Average of corrected necrosis [1, 12]: C (C represents a percentage increase in necrosis relative to the control of 0.1-50)
Average of corrected necrosis [1, 13]: A (A represents a percentage inhibition of 80-100)
Average of corrected necrosis [1, 14]: B (B represents a percentage inhibition of 50-80)
Average of corrected necrosis [1, 15]: A (A represents a percentage inhibition of 80-100)
Average of corrected necrosis [3, 6]: C (C represents a percentage increase in necrosis relative to the control of 0.1-50)
Average of corrected necrosis [3, 7]: A (A represents a percentage inhibition of 80-100)
Average of corrected necrosis [3, 8]: C (C represents a percentage increase in necrosis relative to the control of 0.1-50)
Average of corrected necrosis [3, 9]: A (A represents a percentage inhibition of 80-100)
Average of corrected necrosis [3, 10]: C (C represents a percentage increase in necrosis relative to the control of 0.1-50)
Average of corrected necrosis [3, 11]: A (A represents a percentage inhibition of 80-100)
Average of corrected necrosis [3, 12]: C (C represents a percentage increase in necrosis relative to the control of 0.1-50)
Average of corrected necrosis [3, 13]: A (A represents a percentage inhibition of 80-100)
Average of corrected necrosis [3, 14]: C (C represents a percentage increase in necrosis relative to the control of 0.1-50)
Average of corrected necrosis [3, 15]: A (A represents a percentage inhibition of 80-100)
Average of corrected necrosis [4, 6]: C (C represents a percentage increase in necrosis relative to the control of 0.1-50)
Average of corrected necrosis [4, 7]: A (A represents a percentage inhibition of 80-100)
Average of corrected necrosis [4, 8]: C (C represents a percentage increase in necrosis relative to the control of 0.1-50)
Average of corrected necrosis [4, 9]: 0%
Average of corrected necrosis [4, 10]: C (C represents a percentage increase in necrosis relative to the control of 0.1-50)
Average of corrected necrosis [4, 11]: A (A represents a percentage inhibition of 80-100)
Average of corrected necrosis [4, 12]: C (C represents a percentage increase in necrosis relative to the control of 0.1-50)
Average of corrected necrosis [4, 13]: A (A represents a percentage inhibition of 80-100)
Average of corrected necrosis [4, 14]: C (C represents a percentage increase in necrosis relative to the control of 0.1-50)
Average of corrected necrosis [4, 15]: A (A represents a percentage inhibition of 80-100)
control compared with the reference compound (saflufenacil) [5]: better control
